Test results reported in PMC11882969 (Nature Communications, 2025).
Values joined by “and” are separate entries in the source; they are usually repeats but may differ in a detail not shown here. Equal values may be shown once.

What was measured:
Type in all cases: cell-based
hCB1 = hCB1 (Homo sapiens, UniProt P21554); assay: Tango β-arrestin-2 recruitment, HTLA cells, CB1R; set-up: expressed in transfected cells; host or cells: HTLA cells (gift of R. Axel), transient transfection
hCB2 [1] = molecular target: T1, hCB2 (Homo sapiens, UniProt P34972); assay: Tango β-arrestin-2 recruitment, HTLA cells, CB2R; set-up: expressed in transfected cells; host or cells: HEK293 cells stably expressing human CB2R (Laboratory of Ken Mackie); conditions: hCB2
T1 sequence (P34972 whole entry): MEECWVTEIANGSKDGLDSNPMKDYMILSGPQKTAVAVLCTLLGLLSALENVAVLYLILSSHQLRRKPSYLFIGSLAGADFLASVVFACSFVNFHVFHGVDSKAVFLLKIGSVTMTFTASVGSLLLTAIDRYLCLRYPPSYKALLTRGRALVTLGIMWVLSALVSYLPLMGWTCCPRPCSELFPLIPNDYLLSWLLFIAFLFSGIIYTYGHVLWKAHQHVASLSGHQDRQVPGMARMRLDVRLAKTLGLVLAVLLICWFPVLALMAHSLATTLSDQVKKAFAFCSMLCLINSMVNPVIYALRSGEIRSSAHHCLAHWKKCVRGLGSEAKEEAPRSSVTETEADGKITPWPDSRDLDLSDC

hCB2 [2] = molecular target: T1, hCB2; assay: TRUPATH BRET2 GoA dissociation, HEK293T; set-up: expressed in transfected cells; host or cells: HEK293T cells (ATCC: CRL-3216), transient co-transfection; conditions: for functional response, concentration-response point (FigS7e, normalized): Log[drug], replicate columns

Sequence of hCB1 (P21554 whole entry): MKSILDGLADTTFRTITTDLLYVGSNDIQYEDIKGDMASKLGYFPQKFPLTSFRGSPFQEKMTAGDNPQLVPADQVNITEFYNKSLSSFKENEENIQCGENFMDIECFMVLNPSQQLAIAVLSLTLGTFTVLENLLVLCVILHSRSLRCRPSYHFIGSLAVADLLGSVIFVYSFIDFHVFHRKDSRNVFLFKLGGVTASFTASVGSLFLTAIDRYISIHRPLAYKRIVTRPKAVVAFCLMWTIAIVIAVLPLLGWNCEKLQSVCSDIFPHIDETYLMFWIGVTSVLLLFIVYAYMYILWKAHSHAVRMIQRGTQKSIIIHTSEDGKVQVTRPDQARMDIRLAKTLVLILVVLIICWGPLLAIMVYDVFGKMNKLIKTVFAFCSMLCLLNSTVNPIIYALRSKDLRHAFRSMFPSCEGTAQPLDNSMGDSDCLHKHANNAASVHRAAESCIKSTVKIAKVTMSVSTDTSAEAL

Which Emax (hCB1; HTLA, hCB1, read-out: Tango ß-arrestin recruitment Emax) does the source give for `COC(=O)C(C)(NC(=O)c1cc(C)n(-c2cccc(C(F)(F)F)c2)n1)c1cccs1` (centres unmarked) [‘4042] here?
Its Emax is 102%.

And the “response, replicate values of concentration-response curve (FigS7f)” value (shortened to “response, replicate values”) (hCB1; Log[drug], M = -4.52)?
The value was 7.067 and -6.331 and 5.4951 and 8.221 and 8.314 and -13.0772 and 26.9747 and 17.871 and 12.4553 and 121.329 and 105.672 and 117.884.

What about the “response, replicate values” value (hCB1; Log[drug], M = -5) of the same molecule?
Its value is -3.086 and 3.974 and -30.8966 and 0.657 and 12.6131 and 6.151 and 33.0168 and 23.9031 and -6.308 and 64.2077 and 47.075 and 77.367.

What about the “response at Log[drug], M -5 (FigS4e)” value (hCB1; Log[drug], M = -5, individual replicates) of the same molecule?
Its value is 105.219 and 109.279 and 117.533 and 125.309 and 97.6126 and 107.099 and 99.9992 and 108.6 and 92.9311 and 106.141 and 96.6922 and 121.582.

What about the “response, replicate values” value (hCB1; Log[drug], M = -5.52) of the same molecule?
Its value is -43.7244 and -3.669 and 10.2865 and 56.4831 and 26.3341 and 31.5757 and 34.4515 and 25.7521 and 21.276 and 49.6996 and 52.3788 and 22.9617.

What about the “response at Log[drug], M -5.52 (FigS4e)” value (hCB1; Log[drug], M = -5.52, individual replicates) of the same molecule?
The value was 101.394 and 114.732 and 120.488 and 108.55 and 90.8381 and 89.995 and 132.472 and 109.506 and 88.5962 and 99.4965 and 84.8551 and 98.2296.

And the “response, replicate values” value (hCB1; Log[drug], M = -6)?
Its value is 45.905 and 18.3989 and 8.994 and 37.6798 and 48.3885 and 1.626 and 39.9683 and 51.123 and 11.4551 and 62.3486 and 38.1624 and 52.7798.

And the “response at Log[drug], M -6 (FigS4e)” value (hCB1; Log[drug], M = -6, individual replicates)?
Its value is 110.2 and 110.608 and 113.923 and 102.851 and 70.7652 and 82.3944 and 91.1468 and 90.7286 and 85.6996 and 85.6798 and 84.3272 and 95.3395.

What about the “response, replicate values” value (hCB1; Log[drug], M = -6.52) of the same molecule?
The value was 48.7063 and 31.7717 and 10.7428 and 2.793 and 31.788 and 27.608 and 19.4978 and 35.1184 and 41.787 and 72.0632 and 23.3444 and 56.7531.

What about the “response at Log[drug], M -6.52 (FigS4e)” value (hCB1; Log[drug], M = -6.52, individual replicates) of the same molecule?
Its value is 101.401 and 93.7884 and 111.126 and 102.386 and 76.6593 and 76.4337 and 80.9673 and 77.6716 and 90.47 and 82.2224 and 76.8121 and 78.3428.

What about the “response, replicate values” value (hCB1; Log[drug], M = -7) of the same molecule?
The value was 45.8923 and 39.1109 and -32.4811 and 3.271 and 1.931 and -6.456 and 21.6196 and 13.8396 and 19.3159 and 108.005 and 18.4598 and 4.043.

What about the “response at Log[drug], M -7 (FigS4e)” value (hCB1; Log[drug], M = -7, individual replicates) of the same molecule?
The value was 101.996 and 90.2881 and 92.9617 and 98.4638 and 67.7319 and 66.2817 and 76.3076 and 71.3692 and 69.3631 and 70.7817 and 73.5528 and 86.8411.

What about the “response, replicate values” value (hCB1; Log[drug], M = -7.52) of the same molecule?
Its value is 6.205 and 16.8525 and 13.7723 and 78.1261 and 25.2327 and 15.4263 and 3.028 and 19.2351 and -2.458 and 66.2308 and 22.6883 and 80.2832.

What about the “response at Log[drug], M -7.52 (FigS4e)” value (hCB1; Log[drug], M = -7.52, individual replicates) of the same molecule?
Its value is 85.8169 and 81.0399 and 77.0438 and 77.8353 and 74.3661 and 62.598 and 69.4576 and 65.014 and 61.4855 and 54.8485 and 65.2396 and 54.8221.

And the “response at Log[drug], M -8 (FigS4e)” value (hCB1; Log[drug], M = -8, individual replicates)?
Its value is 64.9332 and 70.1108 and 76.4142 and 63.9273 and 43.1923 and 49.5865 and 49.0423 and 55.5064 and 60.3508 and 56.2009 and 53.2123 and 59.8164.

And the “response at Log[drug], M -8.52 (FigS4e)” value (hCB1; Log[drug], M = -8.52, individual replicates)?
Its value is 34.3417 and 29.1931 and 35.2401 and 27.4328 and 27.4461 and 34.6615 and 20.0846 and 24.5419 and 29.6463 and 23.9316 and 26.0874 and 20.4241.

And the “response at Log[drug], M -9 (FigS4e)” value (hCB1; Log[drug], M = -9, individual replicates)?
The value was 11.2308 and 14.9426 and 16.0188 and 14.8879 and 7.81 and 6.201 and 6.046 and 5.165 and 11.416 and 8.011 and 9.8505 and 11.4417.

What about the “response, replicate values” value (hCB1; Log[drug], M = -9.52) of the same molecule?
Its value is -8.017 and 13.4427 and 7.219 and 1.3736.

What about the “response at Log[drug], M -9.52 (FigS4e)” value (hCB1; Log[drug], M = -9.52, individual replicates) of the same molecule?
Its value is 4.318 and 6.954 and 4.569 and 9.019 and 2.48 and 0.9701 and 1.146 and -0.2947 and 2.2712 and 3.563 and 2.22 and 2.613.

And the “response, replicate values” value (hCB1; Log[drug], M = -10)?
The value was -5.634 and 19.8566 and -6.166 and -19.951 and 12.6927 and 1.918 and 26.5806 and 27.9648 and -15.2597 and 16.5278 and -42.7439 and -28.9284.

What about the “response at Log[drug], M -10 (FigS4e)” value (hCB1; Log[drug], M = -10, individual replicates) of the same molecule?
Its value is 4.678 and 4.596 and 5.116 and 5.805 and 0.4668 and 1.099 and -0.9271 and 0.03226 and 4.179 and 1.0137 and 3.024 and 3.033.

And the “response at Log[drug], M -10.52 (FigS4e)” value (hCB1; Log[drug], M = -10.52, individual replicates)?
The value was 3.333 and 5.039 and 5.463 and 7.136 and 2.136 and 1.073 and 1.405 and 1.689 and 0.06416 and 3.135 and 1.262 and 0.6116.

And the “response at Log[drug], M -11 (FigS4e)” value (hCB1; Log[drug], M = -11, individual replicates)?
Its value is 2.02 and 1.728 and 3.648 and 1.714 and 2.136 and 0.5313 and 2.282 and 1.392 and 2.442 and 2.186 and 2.656 and 2.784.

And the “response at Log[drug], M -11.52 (FigS4e)” value (hCB1; Log[drug], M = -11.52, individual replicates)?
Its value is 0.1596 and 0.8162 and 2.015 and 2.59 and 0.7808 and -0.157 and 2.17 and 1.37 and 0.3122 and 1.493 and -1.27 and 0.3892.

What about the “response at Log[drug], M -12 (FigS4e)” value (hCB1; Log[drug], M = -12, individual replicates) of the same molecule?
The value was -1.281 and 1.1992 and 0.1003 and -0.01824 and -0.4194 and -1.323 and 0.4797 and 1.263 and -0.586 and -0.201 and 1.578 and -0.7913.

What about the “Tango ß-arrestin recruitment pEC50” value (hCB1; hCB1) of the same molecule?
The value was 8.0 [7.9 – 8.1].

What about the EC50 (hCB1; hCB1, read-out: Tango ß-arrestin recruitment EC50) of the same molecule?
The EC50 was 10.7 nM.

What about the Emax (hCB2 [1]; HTLA, read-out: Tango ß-arrestin recruitment Emax) of the same molecule?
Its Emax is 28%.

And the “Tango ß-arrestin recruitment pEC50” value (hCB2 [1])?
The value was 7.5 [7.2 – 7.7].

And the EC50 (hCB2 [1]; read-out: Tango ß-arrestin recruitment EC50)?
The EC50 was 33.9 nM.

What about the “BRET2 + GoA pEC50” value (hCB2 [2]) of the same molecule?
The value was 8.1 [7.4 – 8.8].

What about the Emax (hCB2 [2]; HEK-293T) of the same molecule?
The Emax was 29%.

And the “functional response, concentration-response point (FigS7e, normalized)” value (from here on “functional response … (FigS7e, normalized)”) (hCB2 [2]; M = -5.52)?
The value was 35.163 and 34.5195 and 37.1398 and 45.2359 and 22.1885 and 20.0253 and 22.0647 and 22.44 and 27.1274 and 29.7176 and 29.0627 and 31.2724.

What about the “functional response … (FigS7e, normalized)” value (hCB2 [2]; M = -6) of the same molecule?
The value was 29.7877 and 33.9492 and 29.5334 and 25.2255 and 15.8228 and 16.2963 and 15.9211 and 20.153 and 25.0506 and 24.2718 and 28.0892 and 24.4694.

And the “functional response … (FigS7e, normalized)” value (hCB2 [2]; M = -6.52)?
Its value is 26.0116 and 28.0846 and 25.607 and 31.5062 and 14.9093 and 14.0547 and 17.0527 and 13.1077 and 21.8115 and 21.8852 and 20.2922 and 24.9916.

And the “functional response … (FigS7e, normalized)” value (hCB2 [2]; M = -7)?
The value was 24.1274 and 22.8405 and 29.7761 and 21.8695 and 14.0743 and 11.9997 and 13.5282 and 12.4358 and 19.7258 and 19.481 and 19.1064 and 19.4486.

And the “functional response … (FigS7e, normalized)” value (hCB2 [2]; M = -7.52)?
The value was 23.5957 and 22.9137 and 20.3707 and 18.5906 and 11.4339 and 9.937 and 10.3691 and 10.8406 and 16.0355 and 14.8408 and 13.0297 and 14.2214.

And the “functional response … (FigS7e, normalized)” value (hCB2 [2]; M = -8)?
Its value is 12.8343 and 12.3797 and 11.0928 and 9.008 and 8.006 and 4.9629 and 4.745 and 4.187 and 11.3719 and 9.991 and 9.086 and 7.272.

What about the “functional response … (FigS7e, normalized)” value (hCB2 [2]; M = -8.52) of the same molecule?
The value was 3.796 and 2.717 and 4.595 and 4.6603 and 1.822 and 2.459 and 1.412 and 2.158 and 3.296 and 4.616 and 3.0209 and 3.939.

And the “functional response … (FigS7e, normalized)” value (hCB2 [2]; M = -11.52)?
Its value is -0.1711 and -0.00125 and 0.5633 and 1.428.

And the “functional response … (FigS7e, normalized)” value (hCB2 [2]; M = -12)?
The value was 0.1237 and -0.6757 and -0.301 and 0.8531 and -0.1904 and 0.4719 and -0.17 and -0.1114 and 0.2132 and -0.01243 and 0.1138 and -0.3146.
